Source: ChEMBL document CHEMBL1201862, “PubChem BioAssay data set” (2004)
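1) Cells in 96-well plates. 2) Compound, 48 h, 5 concentrations. 3) Linear interpolation between surrounding doses. 4) Unreached endpoint = highest concentration. GI50 = concentration required for 50% inhibition of growth.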 Active and inactive are the calls of the source. No stated cut-off is given here; in the data, active = GI50 up to about 1.1 µM and inactive = higher.

Key:
Test in all cases: inhibition of tumour cell growth, NCI panel, 48 h
A549 = system: A549
DLD-1 = system: DLD-1
EKVX = system: EKVX
HCC 2998 = system: HCC 2998
HCT-116 = system: HCT-116
HL-60 = system: HL-60
HOP-62 = system: HOP-62
IGROV-1 = system: IGROV-1
M14 = system: M14
MOLT-4 = system: MOLT-4
NCI-H226 = system: NCI-H226
NCI-H522 = system: NCI-H522
OVCAR-3 = system: OVCAR-3
RPMI-8226 = system: RPMI-8226
SK-MEL-5 = system: SK-MEL-5
SN12C = system: SN12C

Measured: GI50

Nc1c(-c2nc3ccccc3s2)[n+]([O-])c2ccccc2[n+]1[O-]
inactive: A549 36.4 µM | DLD-1 33 µM | EKVX 51.6 µM | HCC 2998 38.1 µM | HCT-116 24.3 µM | HL-60 29.9 µM | HOP-62 22.5 µM | IGROV-1 29.9 µM | M14 29.6 µM | MOLT-4 32.7 µM | NCI-H226 54.7 µM | NCI-H522 22 µM | OVCAR-3 23.3 µM | RPMI-8226 25.8 µM | SK-MEL-5 17 µM

O=C(Nc1ccc(Cl)cc1C(=O)O)c1ccc([N+](=O)[O-])cc1
inactive: A549 33.7 µM | DLD-1 7.06 µM | EKVX 29.5 µM | HCC 2998 11.2 µM | HCT-116 12.2 µM | HL-60 22.4 µM | HOP-62 10.2 µM | IGROV-1 17.4 µM | M14 24.3 µM | MOLT-4 22.4 µM | NCI-H226 11.2 µM | OVCAR-3 22.4 µM | RPMI-8226 26.5 µM | SK-MEL-5 20.3 µM | SN12C 37.2 µM

Cc1noc(C)c1CCCOC1COc2ccccc2OCCOCCOc2ccccc2OC1
inactive: A549 > 100 µM | DLD-1 > 100 µM | EKVX > 100 µM | HCC 2998 > 100 µM | HL-60 > 100 µM | HOP-62 > 100 µM | IGROV-1 > 100 µM | M14 > 100 µM | NCI-H226 > 100 µM | NCI-H522 > 100 µM | OVCAR-3 > 100 µM | SK-MEL-5 > 100 µM | SN12C > 100 µM

Cc1cc2cc(Cl)ccc2nc1C(=O)c1ccccc1
inactive: A549 > 100 µM | DLD-1 > 100 µM | HCC 2998 > 100 µM | HCT-116 > 100 µM | HOP-62 43.1 µM | IGROV-1 > 100 µM | M14 > 100 µM | MOLT-4 > 100 µM | NCI-H226 > 100 µM | NCI-H522 > 100 µM | OVCAR-3 > 100 µM | RPMI-8226 > 100 µM | SK-MEL-5 > 100 µM | SN12C > 100 µM

CC(=O)Nc1ccc(/C=c2\sc3nnc(-c4cccnc4)n3c2=O)cc1
inactive: A549 42.1 µM | DLD-1 17.3 µM | EKVX 18.9 µM | HCC 2998 20.7 µM | HCT-116 15.6 µM | HL-60 16.4 µM | HOP-62 21.8 µM | IGROV-1 16.9 µM | M14 18.7 µM | MOLT-4 19.7 µM | NCI-H226 49.7 µM | NCI-H522 16.1 µM | OVCAR-3 17.8 µM | SK-MEL-5 17.4 µM | SN12C 14.4 µM

C[N+]1(C)C/C(=C\c2ccncc2)C(=O)/C(=C/c2ccncc2)C1
inactive: A549 > 100 µM | DLD-1 > 100 µM | EKVX > 100 µM | HCC 2998 > 100 µM | HCT-116 38.5 µM | HL-60 24.8 µM | HOP-62 > 100 µM | IGROV-1 > 100 µM | M14 > 100 µM | MOLT-4 > 100 µM | NCI-H522 19.6 µM | OVCAR-3 > 100 µM | RPMI-8226 63.8 µM | SK-MEL-5 > 100 µM | SN12C > 100 µM

O=C1c2ccc(O)cc2C(=O)c2ccc(O)cc21
inactive: A549 54.6 µM | DLD-1 38.6 µM | EKVX 67.3 µM | HCC 2998 46.3 µM | HCT-116 39.4 µM | HL-60 70.5 µM | HOP-62 30.6 µM | IGROV-1 48.3 µM | M14 58.9 µM | MOLT-4 31.6 µM | NCI-H522 32.6 µM | OVCAR-3 78.5 µM | RPMI-8226 42.8 µM | SK-MEL-5 > 100 µM | SN12C 73.5 µM

COc1ccc(C(=O)N2c3ccccc3N(C)n3cccc3C2CC(=O)O)cc1 (stereo not drawn)
inactive: A549 > 100 µM | DLD-1 > 100 µM | EKVX > 100 µM | HCC 2998 > 100 µM | HL-60 > 100 µM | HOP-62 > 100 µM | IGROV-1 > 100 µM | M14 > 100 µM | MOLT-4 > 100 µM | NCI-H226 > 100 µM | NCI-H522 > 100 µM | OVCAR-3 > 100 µM | RPMI-8226 > 100 µM | SK-MEL-5 > 100 µM | SN12C > 100 µM

COc1ccc(/C=C/C(=O)c2c(-c3ccccc3)nn(C)c(=O)c2N2CCCCC2)cc1
inactive: A549 16.8 µM | DLD-1 16.1 µM | EKVX 11.7 µM | HCT-116 7.31 µM | IGROV-1 25 µM | M14 20.7 µM | MOLT-4 3.94 µM | NCI-H522 10.7 µM | RPMI-8226 5.26 µM | SK-MEL-5 12.8 µM | SN12C 20.8 µM

CC(C)c1ccc(/C=C(\NC(=O)c2ccccc2)c2nc3ccccc3[nH]2)cc1
inactive: A549 27.9 µM | DLD-1 30.3 µM | EKVX 34.7 µM | HCT-116 31.6 µM | IGROV-1 73.8 µM | M14 32.3 µM | MOLT-4 23.3 µM | NCI-H226 55.8 µM | NCI-H522 26.7 µM | OVCAR-3 37.3 µM | RPMI-8226 20 µM | SK-MEL-5 23.5 µM | SN12C 55 µM

CCOC(=O)CC1=N/C(=N/c2cc(Cl)ccc2Cl)SC1
inactive: A549 > 100 µM | DLD-1 91.8 µM | EKVX > 100 µM | HCC 2998 > 100 µM | HCT-116 97.9 µM | HL-60 > 100 µM | HOP-62 > 100 µM | IGROV-1 > 100 µM | M14 > 100 µM | NCI-H226 > 100 µM | NCI-H522 76.4 µM | OVCAR-3 62.4 µM | SK-MEL-5 > 100 µM | SN12C > 100 µM

C/C(=N/NC(=O)c1ccccc1O)c1ccc(/C(C)=N\NC(=O)c2ccccc2O)c2nc3cc(C)c(C)cc3nc12
inactive: A549 > 100 µM | DLD-1 > 100 µM | EKVX > 100 µM | HCC 2998 > 100 µM | HCT-116 > 100 µM | HOP-62 > 100 µM | IGROV-1 > 100 µM | M14 > 100 µM | MOLT-4 > 100 µM | NCI-H226 > 100 µM | NCI-H522 > 100 µM | OVCAR-3 > 100 µM | SK-MEL-5 > 100 µM | SN12C > 100 µM

COc1ccc(C2=Nc3ccccc3NC(=O)C2)cc1
inactive: A549 77.6 µM | DLD-1 62.8 µM | EKVX > 100 µM | HCC 2998 > 100 µM | HCT-116 20.5 µM | HL-60 21.8 µM | HOP-62 22.5 µM | IGROV-1 34.6 µM | M14 > 100 µM | MOLT-4 > 100 µM | NCI-H226 > 100 µM | NCI-H522 38.9 µM | OVCAR-3 64 µM | SK-MEL-5 > 100 µM | SN12C 43.3 µM

Cc1cc2c(c(N)c1C)C(=O)c1ccccc1C2=O
inactive: A549 26.3 µM | DLD-1 62.7 µM | HCC 2998 40.6 µM | HCT-116 19 µM | HL-60 > 100 µM | HOP-62 13.9 µM | IGROV-1 12.6 µM | M14 29.2 µM | MOLT-4 > 100 µM | NCI-H522 21.7 µM | RPMI-8226 52.1 µM | SK-MEL-5 20.2 µM | SN12C 49.1 µM

O=C1C2c3[nH]c4ccccc4c3[C@@H]3CCCCCCCCCCC3C2C(=O)N1c1ccccc1 (stereo partly drawn)
inactive: A549 21.8 µM | DLD-1 24.5 µM | EKVX 55.1 µM | HCC 2998 27.5 µM | HL-60 12.1 µM | IGROV-1 18.7 µM | M14 15.3 µM | NCI-H226 33.5 µM | OVCAR-3 16 µM | RPMI-8226 38.6 µM | SK-MEL-5 78 µM | SN12C 18.6 µM

COc1ccc(-c2nnc(-c3c(C)n(C)n(-c4ccccc4)c3=O)o2)cc1
inactive: A549 > 100 µM | DLD-1 > 100 µM | EKVX > 100 µM | HCC 2998 > 100 µM | HCT-116 > 100 µM | HL-60 > 100 µM | HOP-62 > 100 µM | IGROV-1 > 100 µM | M14 > 100 µM | MOLT-4 > 100 µM | NCI-H226 > 100 µM | NCI-H522 > 100 µM | OVCAR-3 > 100 µM | RPMI-8226 > 100 µM | SN12C > 100 µM

CC(=O)OC1[C@H]2c3cc4c(cc3CN3CCC(=C[C@@H]1O)C23)OCO4 (stereo partly drawn)
inactive: A549 > 100 µM | DLD-1 > 100 µM | EKVX 34 µM | HCC 2998 34.8 µM | HL-60 > 100 µM | HOP-62 > 100 µM | IGROV-1 > 100 µM | M14 44.5 µM | MOLT-4 > 100 µM | NCI-H226 34.7 µM | NCI-H522 > 100 µM | OVCAR-3 > 100 µM | RPMI-8226 > 100 µM | SN12C > 100 µM

c1ccc(C2C3=C(Nc4ncnn42)c2ccccc2C3)cc1 (stereo not drawn)
inactive: A549 34.5 µM | DLD-1 14.1 µM | EKVX 87.5 µM | HCC 2998 8.15 µM | HCT-116 12 µM | HL-60 5.07 µM | HOP-62 31.7 µM | IGROV-1 86.1 µM | M14 5.38 µM | MOLT-4 17.4 µM | NCI-H522 6.14 µM | OVCAR-3 8.93 µM | RPMI-8226 29.5 µM | SK-MEL-5 10.9 µM | SN12C 35.3 µM

COC[C@H](C)/N=C/N1CCc2ccccc2C1(Cc1ccccc1)Cc1ccccc1
inactive: A549 30.4 µM | DLD-1 8.18 µM | EKVX 29.9 µM | HCT-116 10.8 µM | HL-60 6.17 µM | HOP-62 24.8 µM | IGROV-1 68.1 µM | M14 10.3 µM | MOLT-4 10.4 µM | NCI-H226 18.5 µM | NCI-H522 12.7 µM | OVCAR-3 22.1 µM | RPMI-8226 15.8 µM | SK-MEL-5 47.9 µM | SN12C 10.3 µM
